Laboratory results taken from patent US6545182B2, “Methods and compositions for modulating alpha adrenergic receptor activity” (Allergan Sales, Inc., priority 2000, dated 2003).

How the values were obtained:
Assay type in all cases: cell-based
[1] = biological target: T1, alpha 2C adrenergic receptor (Homo sapiens, UniProt P18825); assay: RSAT (Receptor Selection and Amplification Technology) assay, alpha 2C; conditions: for EC50: NIH-3T3 cells cotransfected with receptor and Gq/i5; for efficacy or intrinsic activity (value in parentheses) Alpha 2C: ratio of maximal effect to that of standard full agonist brimonidine
T1 construct: expressed in transfected cells; host or cells: NIH-3T3 cells, transient cotransfection by calcium phosphate
T1 sequence (P18825 1-462): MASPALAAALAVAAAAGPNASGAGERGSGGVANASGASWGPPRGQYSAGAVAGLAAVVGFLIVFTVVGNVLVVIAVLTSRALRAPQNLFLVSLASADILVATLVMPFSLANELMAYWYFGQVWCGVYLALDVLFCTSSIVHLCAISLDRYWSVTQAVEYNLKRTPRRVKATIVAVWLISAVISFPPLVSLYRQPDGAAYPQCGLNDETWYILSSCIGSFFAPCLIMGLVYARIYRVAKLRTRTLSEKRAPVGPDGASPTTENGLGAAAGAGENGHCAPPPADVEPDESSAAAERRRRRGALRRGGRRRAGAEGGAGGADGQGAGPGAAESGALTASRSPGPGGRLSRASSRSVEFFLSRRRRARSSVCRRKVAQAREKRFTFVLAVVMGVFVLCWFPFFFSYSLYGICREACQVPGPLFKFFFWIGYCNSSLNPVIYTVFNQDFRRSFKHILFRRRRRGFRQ
Procedure: (§1) Activity was measured using the RSAT (Receptor Selection and Amplification Technology) assay, developed by Receptor Technologies, Inc. of Winooski, Vt. (now Acadia Pharmaceuticals of San Diego, Calif.), adapted for use with recombinant alpha2 adrenergic receptors in collaboration with Allergan. The assay measures receptor-mediated loss of contact inhibition that results in selective proliferation of receptor-containing cells in a mixed population of confluent cells. The increase in cell number is assessed with an appropriate transfected marker gene such as β-galactosidase, the activity of which can be easily measured in a 96-well format. Receptors that activate the G protein, Gq, elicit this response. Alpha2 receptors, which normally couple to Gi, activate the RSAT response when coexpressed with a hybrid Gq protein that has a Gi receptor recognition domain, called Gq/i5.
(§2) The assay is conducted as follows. NIH-3T3 cells are plated at a density of 2×10^6 cells in 15 cm dishes and maintained in Dulbecco's modified Eagle's medium supplemented with 10% calf serum. One day later, cells are cotransfected by calcium phosphate precipitation with mammalian expression plasmids encoding p-SV-β-galactosidase (5-10 μg), receptor (1-2 μg) and G protein (1-2 μg). 40 μg salmon sperm DNA may also be included in the transfection mixture to increase transfection efficiency. Fresh media is added on the following day and 1-2 days later, cells are harvested and frozen in 50 assay aliquots. Transfectant cells are thawed and 100 μl added to 100 μl aliquots of various concentrations of drugs in triplicate in 96-well dishes. Incubations continue 72-96 hr at 37°. After washing with phosphate-buffered saline, β-galactosidase enzyme activity is determined by adding 200 μl of the chromogenic substrate (consisting of 3.5 mM o-nitrophenyl-β-D-galactopyranoside and 0.5% of the non-ionic surfactant nonidet P-40 in phosphate buffered saline), incubating overnight at 30° and measuring optical density at 420 nm. The absorbency is a measure of enzyme activity, which depends on cell number and reflects a receptor-mediated cell proliferation. The EC50 and maximal effect of each drug at each alpha2 receptor is determined. The efficacy or intrinsic activity is calculated as a ratio of the maximal effect of the drug to the maximal effect of a standard full agonist for each receptor subtype. Brimonidine, also called UK14304, is used as the standard agonist for the alpha2A, alpha2B and alpha2C receptors. The RSAT assay is also discussed in Messier et al. (1995) High throughput assays of cloned adrenergic, muscarinic, neurokinin and neurotrophin receptors in living mammalian cells, Pharmacol. Toxicol. 76:308-11; see also Conklin et al. (1993) Substitution of three amino acids switches receptor specificity of Gqα to that of Giα, Nature 363:274-6; Both of these papers are incorporated by reference herein.

[2] = biological target: T2, alpha 2B adrenergic receptor (Homo sapiens, UniProt P18089); assay: RSAT (Receptor Selection and Amplification Technology) assay, alpha 2B; conditions: for EC50: NIH-3T3 cells cotransfected with receptor and Gq/i5; for efficacy or intrinsic activity (value in parentheses) Alpha 2B: ratio of maximal effect to that of standard full agonist brimonidine
T2 construct: expressed in transfected cells; host or cells: NIH-3T3 cells, transient cotransfection by calcium phosphate
T2 sequence (P18089 1-450): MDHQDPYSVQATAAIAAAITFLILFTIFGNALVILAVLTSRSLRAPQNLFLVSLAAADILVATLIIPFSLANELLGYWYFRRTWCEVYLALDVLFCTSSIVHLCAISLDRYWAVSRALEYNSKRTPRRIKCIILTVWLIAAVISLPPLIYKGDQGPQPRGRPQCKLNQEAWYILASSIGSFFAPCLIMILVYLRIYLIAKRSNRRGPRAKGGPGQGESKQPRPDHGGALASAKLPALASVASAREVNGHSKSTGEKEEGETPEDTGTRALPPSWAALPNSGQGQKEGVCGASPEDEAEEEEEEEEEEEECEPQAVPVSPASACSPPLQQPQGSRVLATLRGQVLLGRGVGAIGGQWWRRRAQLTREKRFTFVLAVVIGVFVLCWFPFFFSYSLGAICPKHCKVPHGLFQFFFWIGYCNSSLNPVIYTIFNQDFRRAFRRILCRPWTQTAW
Procedure: as §1, §2

[3] = biological target: T3, alpha 2A adrenergic receptor (Homo sapiens, UniProt P08913); assay: RSAT (Receptor Selection and Amplification Technology) assay, alpha 2A; conditions: for EC50: NIH-3T3 cells cotransfected with receptor and Gq/i5; for efficacy or intrinsic activity (value in parentheses) Alpha 2A: ratio of maximal effect to that of standard full agonist brimonidine
T3 construct: expressed in transfected cells; host or cells: NIH-3T3 cells, transient cotransfection by calcium phosphate
T3 sequence (P08913 1-465): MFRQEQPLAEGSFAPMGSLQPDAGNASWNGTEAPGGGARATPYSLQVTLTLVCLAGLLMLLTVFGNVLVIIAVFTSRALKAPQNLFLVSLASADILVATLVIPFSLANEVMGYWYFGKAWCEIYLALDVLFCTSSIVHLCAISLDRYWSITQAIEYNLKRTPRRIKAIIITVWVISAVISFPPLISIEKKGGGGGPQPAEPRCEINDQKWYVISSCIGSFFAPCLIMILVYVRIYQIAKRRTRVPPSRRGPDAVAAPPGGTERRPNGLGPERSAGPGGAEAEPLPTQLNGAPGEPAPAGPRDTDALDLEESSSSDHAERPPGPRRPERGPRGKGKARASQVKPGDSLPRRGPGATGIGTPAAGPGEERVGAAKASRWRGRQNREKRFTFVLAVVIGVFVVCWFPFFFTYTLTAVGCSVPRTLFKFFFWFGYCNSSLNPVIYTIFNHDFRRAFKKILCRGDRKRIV
Procedure: as §1, §2

Structure (SMILES) | EC50 [1] [nM] | EC50 [2] [nM] | efficacy or intrinsic activity (value in parentheses) Alpha 2B [2] | EC50 [3] [nM] | efficacy or intrinsic activity (value in parentheses) Alpha 2C [1] | efficacy or intrinsic activity (value in parentheses) Alpha 2A [3]
OCCNC(=S)NCc1ccc(F)c(Cl)c1 | ≥ 210000 | 99 | 0.6 | ≥ 210000 | – | –
CCOc1ccccc1CNC(=S)NCCO | 28 | 42 | 0.7 | ≥ 210000 | 0.4 | –
OCCNC(=S)NCc1ccc(F)cc1Cl | ≥ 210000 | 579 | 0.75 | ≥ 210000 | – | –
OCCNC(=S)NCc1c(F)cccc1Cl | ≥ 210000 | 174 | 0.55 | ≥ 210000 | – | –
OCCNC(=S)NCc1cccc(C(F)(F)F)c1F | 632 | 37 | 0.7 | ≥ 210000 | 0.3 | –
OCCNC(=S)NCc1ccccc1Br | 273 | 10 | 0.8 | ≥ 210000 | 0.4 | –
OCCNC(=S)NCc1cccc(Br)c1 | ≥ 210000 | 14 | 0.9 | 295 | – | 0.3
OCCNC(=S)NCc1cccc(Cl)c1 | ≥ 210000 | 16 | 0.7 | ≥ 210000 | – | –
OCCNC(=S)NCc1cccc(Cl)c1Cl | 54.5 | 3 | 0.99 | ≥ 210000 | 0.33 | –
OCCNC(=S)NCc1cccc(Br)c1F | 41 | 5.5 | 1.03 | 136 | 0.88 | 0.52
OCCNC(=S)NCc1c(F)ccc(Cl)c1F | > 2000 | 98 | 0.83 | ≥ 210000 | – | –
COc1ccc(Cl)cc1CNC(=S)NCCO | 175 | 19 | 1.09 | 380 | 0.53 | 0.33
COc1c(F)cccc1CNC(=S)NCCO | 843 | 169 | 0.95 | ≥ 210000 | 0.38 | –
OCCNC(=S)NCc1cc(Br)ccc1F | 459 | 36 | 0.97 | ≥ 210000 | 0.58 | –
OCCNC(=S)NCc1cc(F)ccc1Br | 137 | 20 | 1.0 | ≥ 210000 | 0.63 | –
COc1cccc(CNC(=S)NCCO)c1F | > 3000 | 429 | 1.04 | > 2000 | – | –
Cc1cc(Cl)cc(CNC(=S)NCCO)c1F | 181 | 37.5 | 1.02 | ≥ 210000 | 0.62 | –
OCCNC(=S)NCc1ccc(F)c(F)c1F | ≥ 210000 | 482 | 0.76 | ≥ 210000 | – | –
OCCNC(=S)NCc1c(F)cc(F)c(Cl)c1F | ≥ 210000 | 281 | 0.58 | ≥ 210000 | – | –
Cc1ccc(Br)c(CNC(=S)NCCO)c1F | > 3000 | 115 | 0.8 | ≥ 210000 | – | –
Cc1cc(Br)c(F)c(CNC(=S)NCCO)c1 | 819 | 22 | 0.73 | > 2000 | 0.56 | –
Cc1cc(Br)cc(CNC(=S)NCCO)c1F | 1490 | 240 | 0.8 | ≥ 210000 | 0.37 | –
OCCNC(=S)NCc1cc(Br)cc(Br)c1F | 1410 | 116 | 1.23 | ≥ 210000 | 0.58 | –
